Here are results for 18 compounds from US11873295B2, “Allosteric chromenone inhibitors of phosphoinositide 3-kinase (PI3K) for the treatment of disease” (Petra Pharma Corporation, priority 2021, dated 2024).

For assay [1], the system named is PI3K-α (PIK3CA) in MDA-MB-453 cells. The experiment in a line: PI3K-alpha kinase (PIK3CA) activity in vitro cell based assay, MDA-MB-453 cells, AlphaLisa SureFire. Conditions: Homo sapiens, MDA-MB-453, 3 h, 0% FBS, 3 hours treatment, relative IC50. The protocol:
PI3K-Alpha Kinase (PIK3CA) Activity In Vitro Cell Based Assay and Determining IC50 Values for Inhibitors
The MDA-MB-453 (ATCC-HTB-131) cell line was obtained from the American Type Culture Collection (Manassas, VA). Cells were maintained in Dulbecco's Modified Eagle Media (DMEM, Gibco 11965-092) supplemented with 10% Fetal Bovine Serum, heat inactivated (FBS HI, Gibco 10082-147), 1× non-essential amino acids (NEAA, Gibco 11140-050), and 1 mM sodium pyruvate (Gibco 11360-070). Cultures were maintained in a humidified incubator at 37° C. under 5% CO2/95% air.
For compound testing in 0% FBS, MDA-MB-453 cells were seeded at a density of 1.5×10^4 cells per well in white 384-well plates in 20 μl of Minimum Essential Media (MEM) assay media with 1×NEAA, 1 mM sodium pyruvate, and 1 μg/mL human insulin (Sigma I9278). Compounds dissolved in 10 mM stock solutions in DMSO were serially diluted 1:3 in DMSO to generate a 10-point dilution series and plated using an acoustic liquid handler system (Echo 550 Series Liquid Handler, Labcyte). A 5× intermediate compound dilution plate in MEM with 1×NEAA and 1 mM sodium pyruvate (150 μM starting compound concentration in 1.5% DMSO) was then prepared. Five μl of the intermediate serially diluted compounds were added to the cell plate to final concentrations ranging from […] in 0.3% DMSO. 0.3% DMSO alone was used to establish the maximum (MAX) signal and GDC-0032 at a final concentration of 1 μM was used as a reference compound for the minimum (MIN) signal. After 3 hours treatment, the medium was removed, and the cells lysed in 10 μL of 1× SureFire Lysis buffer with shaking for 10 minutes at room temperature. The Acceptor Mix (Reaction Buffer 1+Reaction Buffer 2+Activation Buffer+SureFire Ultra Acceptor Beads) was prepared by diluting Activation buffer 25-fold in combined Reaction Buffer 1 and Reaction Buffer 2. The Acceptor beads were diluted 50-fold in the combined Reaction Buffers. Five μL of Acceptor Mix was added to each well, the plate was sealed and covered with foil and incubated for 1 hour at room temperature. The Donor Mix (dilution buffer+SureFire Ultra Donor Beads) was prepared by diluting Donor Beads 50-fold in dilution buffer. Five μL of the Donor Mix was added to each well and the plate sealed and covered with foil and incubated for 1 hour at room temperature in the dark. The plates were read on a Neo2 plate reader instrument from Biotek using standard AlphaLisa settings. Compounds were tested in duplicate and the average % inhibition at each compound concentration was used to generate a single dose response curve. The data were processed using the Genedata-Screener tool. Relative IC50 values were determined using luminescence units by calculating percent inhibition with respect to the in-plate “MIN” (GDC-0032 reference control) and “MAX” (DMSO) controls. The data was analyzed using a 4-parameter nonlinear logistic equation (four-parameter logistic concentration-response curve): Y=bottom+[(top−bottom)/1+(X/IC50)slope] where Y=% inhibition, X=concentration of inhibitor, bottom=minimum value of y attained by curve-fit, top=maximum value of y attained by curve-fit and slope=steepness of curve at the IC50. % Inhibition=[(signal at X−median Min)/(median Max−median Min)]×100 IC50: concentration of compound that reduces a given response (ligand binding, enzyme response) by 50%. Relative IC50: concentration giving half the compound's maximum response.
For IC50 values shown in Table B, “A” means IC50<50 nM; “B” means IC50 ranging between 50 nM and 100 nM; “C” means IC50 ranging between 100 nM and 500 nM; “D” means IC50>500 nM.
(In general: In Alpha technology, singlet oxygen from a donor bead excites a nearby acceptor bead.)

The target of assay [2] is T1, human full length PIK3KA H1047R mutant (p110α/p85α complex) (Homo sapiens, UniProt P42336, H1047R).
T1 construct: Recombinant, catalytically active human full length PIK3KA Wild-type and H1047R mutant were purchased as 1:1 complex; 6xHis (N); purchased EMD Millipore Sigma 14-792M
The experiment in a line: PI3K-alpha kinase (PIK3CA) biochemical activity, H1047R mutant, ADP-Glo. The note with it: PI3K-α (PIK3CA) biochemical, H1047R mutant, Soy PI lipid substrate. In a few lines: (§1)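 ADP formation, read by ADP-Glo, is run to about 10% ATP turnover at 27 °C with 20 μM ATP and 50 μM PIP2diC8 or soy PI. WT or H1047R p110α/p85α (1–5 nM) is pre-incubated 1 h with compound in HEPES pH 7.4/MgCl2/Triton buffer, 1% DMSO. 10-point 1:3 series, logistic IC50 versus no-enzyme and DMSO controls.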
On the technique in general: ADP-Glo first removes unused ATP, then detects ADP through luciferase.

For assay [3], the target named is T2, human full length PIK3KA Wild-type (p110α/p85α complex) (Homo sapiens, UniProt P42336).
T2 construct: Recombinant, catalytically active human full length PIK3KA Wild-type and H1047R mutant were purchased as 1:1 complex; 6xHis (N); purchased EMD Millipore Sigma 14-602M
In words: PI3K-alpha kinase (PIK3CA) biochemical activity, wild-type, ADP-Glo. The note with it: PI3K-α (PIK3CA) biochemical, Soy PI lipid substrate. Put shortly: as §1

T1 sequence (P42336 whole entry H1047R): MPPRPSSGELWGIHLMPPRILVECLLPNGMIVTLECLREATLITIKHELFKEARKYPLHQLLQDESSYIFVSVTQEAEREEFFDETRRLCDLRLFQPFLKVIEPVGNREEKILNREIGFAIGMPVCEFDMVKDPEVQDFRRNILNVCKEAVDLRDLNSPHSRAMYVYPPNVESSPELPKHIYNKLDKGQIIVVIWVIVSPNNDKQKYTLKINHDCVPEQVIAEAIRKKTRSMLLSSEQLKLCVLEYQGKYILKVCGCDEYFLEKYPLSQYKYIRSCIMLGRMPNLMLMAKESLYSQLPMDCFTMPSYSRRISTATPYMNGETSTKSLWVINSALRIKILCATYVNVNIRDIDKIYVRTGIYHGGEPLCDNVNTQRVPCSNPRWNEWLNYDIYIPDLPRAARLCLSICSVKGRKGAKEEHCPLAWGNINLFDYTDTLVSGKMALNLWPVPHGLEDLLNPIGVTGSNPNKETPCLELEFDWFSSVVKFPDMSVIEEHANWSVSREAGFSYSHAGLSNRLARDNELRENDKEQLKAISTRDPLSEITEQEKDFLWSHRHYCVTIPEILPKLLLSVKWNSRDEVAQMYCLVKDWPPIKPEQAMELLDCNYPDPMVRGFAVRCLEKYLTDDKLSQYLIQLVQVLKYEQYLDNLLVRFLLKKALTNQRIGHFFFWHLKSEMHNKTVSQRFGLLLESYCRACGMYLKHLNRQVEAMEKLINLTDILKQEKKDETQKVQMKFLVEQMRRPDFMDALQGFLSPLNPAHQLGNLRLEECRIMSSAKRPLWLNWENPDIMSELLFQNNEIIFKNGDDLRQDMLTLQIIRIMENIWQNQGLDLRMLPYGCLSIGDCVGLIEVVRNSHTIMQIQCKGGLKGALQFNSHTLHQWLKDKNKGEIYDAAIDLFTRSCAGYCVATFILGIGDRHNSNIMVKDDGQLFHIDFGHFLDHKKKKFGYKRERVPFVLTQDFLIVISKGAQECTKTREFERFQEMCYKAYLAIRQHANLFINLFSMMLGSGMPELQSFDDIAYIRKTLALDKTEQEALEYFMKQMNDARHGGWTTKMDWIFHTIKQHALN
T1 sequence (P27986 whole entry partner): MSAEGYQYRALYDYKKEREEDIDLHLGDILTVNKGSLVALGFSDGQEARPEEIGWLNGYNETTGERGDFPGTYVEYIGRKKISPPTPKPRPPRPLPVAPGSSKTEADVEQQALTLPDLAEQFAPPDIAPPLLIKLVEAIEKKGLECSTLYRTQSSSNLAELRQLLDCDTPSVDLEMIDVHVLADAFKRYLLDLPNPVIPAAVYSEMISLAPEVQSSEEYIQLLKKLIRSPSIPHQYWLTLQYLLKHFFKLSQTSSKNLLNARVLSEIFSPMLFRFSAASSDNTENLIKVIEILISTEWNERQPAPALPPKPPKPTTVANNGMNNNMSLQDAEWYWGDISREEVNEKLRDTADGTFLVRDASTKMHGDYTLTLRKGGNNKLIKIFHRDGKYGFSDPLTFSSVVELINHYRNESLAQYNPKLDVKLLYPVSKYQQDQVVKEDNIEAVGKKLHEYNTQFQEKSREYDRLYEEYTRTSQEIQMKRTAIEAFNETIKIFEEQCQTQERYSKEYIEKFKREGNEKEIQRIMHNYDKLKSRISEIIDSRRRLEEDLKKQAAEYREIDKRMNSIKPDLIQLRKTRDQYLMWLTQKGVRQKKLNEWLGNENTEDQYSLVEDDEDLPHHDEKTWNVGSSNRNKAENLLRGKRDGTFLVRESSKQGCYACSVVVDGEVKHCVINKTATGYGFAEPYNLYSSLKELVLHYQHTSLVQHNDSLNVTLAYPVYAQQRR

As to `Cc1cc([C@@H](C)Nc2ccc(C(F)(F)F)cc2C(=O)O)c2oc(-c3ccccc3)c(C)c(=O)c2c1` [Example 37, 2-[[(1R)-1-(3,6-Dimethyl-4-oxo-2-phenyl-chromen-8-yl)ethyl]amino]-5-(trifluoromethyl)benzoic acid], the IC50 (usually the midpoint of a concentration-inhibition curve) in assay [1] lay in the range of 100 to 500 nM; in assay [2], 500 to 1000 nM; in assay [3], 1000 to 5000 nM.

Consider `Cc1cc([C@@H](C)Nc2ccccc2C(=O)O)c2oc(-c3ccccc3F)c(C)c(=O)c2c1` [Example 44, 2-[[(1R)-1-[2-(2-Fluorophenyl)-3,6-dimethyl-4-oxo-chromen-8-yl]ethyl]amino]benzoic acid], for which the IC50 was less than 50 nM in assay [1], less than 500 nM in assay [2] and 1000 to 5000 nM in assay [3]. On the same counts, the results for `Cc1cc(C(C)Nc2ccc(C)nc2C(=O)O)c2oc(-c3ccccc3)c(C(F)(F)F)c(=O)c2c1` (stereo not shown) [Example 101, 6-Methyl-3-[1-[6-methyl-4-oxo-2-phenyl-3-(trifluoromethyl)-chromen-8-yl]ethylamino]pyridine-2-carboxylic acid 2,2,2-trifluoroacetic acid] are less than 50 nM, less than 500 nM and less than 500 nM. On to `Cc1cc([C@@H](C)Nc2ccc(C(F)(F)F)cc2C(=O)O)c2oc(-c3ccccc3)cc(=O)c2c1` [Example 33, 2-[[(1R)-1-(6-Methyl-4-oxo-2-phenyl-chromen-8-yl)ethyl]amino]-5-(trifluoromethyl)benzoic acid], for which the IC50 in assay [1] is 100 to 500 nM; in assay [2], less than 500 nM; in assay [3] it was 5000 to 10000 nM.

As for `Cc1cc([C@@H](C)Nc2ccccc2C(=O)O)c2oc(-c3ccc(-c4ncco4)cc3)cc(=O)c2c1` [Example 32, 2-[[(1R)-1-[6-Methyl-2-(4-oxazol-2-ylphenyl)-4-oxo-chromen-8-yl]ethyl]amino]benzoic acid], the IC50 in assay [1] was less than 50 nM; in assay [2] it was less than 500 nM; in assay [3] it was 5000 to 10000 nM.

With `Cc1cc([C@@H](C)Nc2ccc(C(F)(F)F)nc2C(=O)O)c2oc(-c3ccc(F)c(F)c3)c(C)c(=O)c2c1` [Example 123, 3-[[(1R)-1-[2-(3,4-Difluorophenyl)-3,6-dimethyl-4-oxo-chromen-8-yl]ethyl]amino]-6-(trifluoromethyl)pyridine-2-carboxylic acid], the IC50 was less than 50 nM in assay [1], less than 500 nM in assay [2] and 1000 to 5000 nM in assay [3].

Take `CC(=O)c1c(-c2ccccc2)oc2c([C@@H](C)Nc3ccccc3C(=O)O)cc(C)cc2c1=O` [Example 119, 2-[[(1R)-1-(3-Acetyl-6-methyl-4-oxo-2-phenyl-chromen-8-yl)ethyl]amino]benzoic acid 2,2,2-trifluoroacetic acid]: the IC50 was less than 50 nM in assay [1], less than 500 nM in assay [2] and 500 to 1000 nM in assay [3]. For the compound `Cc1cc([C@@H](C)Nc2ccc(C)nc2C(=O)O)c2oc(-c3ccc(F)c(F)c3)c(C)c(=O)c2c1` [Example 124, 3-[[(1R)-1-[2-(3,4-Difluorophenyl)-3,6-dimethyl-4-oxo-chromen-8-yl]ethyl]amino]-6-methyl-pyridine-2-carboxylic acid], the IC50 in assay [1] is less than 50 nM; in assay [2], less than 500 nM; in assay [3] it was 1000 to 5000 nM.

Turning to `Cc1cc([C@@H](C)Nc2ccccc2C(=O)O)c2oc(-c3cccc(-c4cccc(C#N)c4)c3)c(C)c(=O)c2c1` [Example 176, 2-[[(1R)-1-[2-[3-(3-Cyanophenyl)phenyl]-3,6-dimethyl-4-oxo-chromen-8-yl]ethyl]amino]benzoic acid], in assay [1], the IC50 lay within 50 to 100 nM. Still for that read-out and setting: the same measure for `Cc1cc([C@@H](C)Nc2ccccc2C(=O)O)c2oc(-c3ccc(-c4ccccc4C#N)cc3)c(C)c(=O)c2c1` [Example 177, 2-[[(1R)-1-[2-[4-(2-Cyanophenyl)phenyl]-3,6-dimethyl-4-oxo-chromen-8-yl]ethyl]amino]benzoic acid]: less than 50 nM; for `Cc1cc([C@@H](C)Nc2ccccc2C(=O)O)c2oc(-c3ccc(-c4ccc(C#N)cc4)cc3)c(C)c(=O)c2c1` [Example 172, 2-[[(1R)-1-[2-[4-(4-Cyanophenyl)phenyl]-3,6-dimethyl-4-oxo-chromen-8-yl]ethyl]amino]benzoic acid]: 50 to 100 nM; for `Cc1cc([C@@H](C)Nc2ccc(C)nc2C(=O)O)c2oc(-c3ccccc3)c(C(F)(F)F)c(=O)c2c1` [Example 116, 6-Methyl-3-[[(1R)-1-[6-methyl-4-oxo-2-phenyl-3-(trifluoromethyl)-chromen-8-yl]ethyl]amino]pyridine-2-carboxylic acid]: less than 50 nM.

Turning to `Cc1cc([C@@H](C)Nc2ccccc2C(=O)O)c2oc(-c3cccc(-n4cc(C#N)cn4)c3)c(C)c(=O)c2c1` [Example 178, 2-[[(1R)-1-[2-[3-(4-Cyanopyrazol-1-yl)phenyl]-3,6-dimethyl-4-oxo-chromen-8-yl]ethyl]amino]benzoic acid 2,2,2-trifluoroacetic acid], in assay [1], the IC50 is less than 50 nM. The same measure, in the same setting: with `Cc1cc([C@@H](C)Nc2ccccc2C(=O)O)c2oc(-c3cccc(-c4ccccc4C#N)c3)c(C)c(=O)c2c1` [Example 174, 2-[[(1R)-1-[2-[3-(2-Cyanophenyl)phenyl]-3,6-dimethyl-4-oxo-chromen-8-yl]ethyl]amino]benzoic acid] the figure was less than 50 nM. `Cc1cc([C@@H](C)Nc2ccccc2C(=O)O)c2oc(-c3cccc(C#N)c3F)c(C)c(=O)c2c1` [Example 170, 2-[[(1R)-1-[2-(3-Cyano-2-fluoro-phenyl)-3,6-dimethyl-4-oxo-chromen-8-yl]ethyl]amino]benzoic acid]: the IC50 in assay [1] is less than 50 nM. Still for that read-out and setting: the same measure for `Cc1cc([C@@H](C)Nc2cccc(F)c2C(=O)O)c2oc(-c3cccc(F)c3)c(C)c(=O)c2c1` [Example 143, 2-Fluoro-6-[[(1R)-1-[2-(3-fluorophenyl)-3,6-dimethyl-4-oxo-chromen-8-yl]ethyl]amino]benzoic acid 2,2,2-trifluoroacetic acid]: less than 50 nM; for `Cc1cc([C@@H](C)Nc2ccccc2C(=O)O)c2oc(-c3ccc(-c4cccc(C#N)c4)cc3)c(C)c(=O)c2c1` [Example 173, 2-[[(1R)-1-[2-[4-(3-Cyanophenyl)phenyl]-3,6-dimethyl-4-oxo-chromen-8-yl]ethyl]amino]benzoic acid]: 50 to 100 nM.

`Cc1cc([C@@H](C)Nc2ccccc2C(=O)O)c2oc(-c3cccc(-c4ccc(C#N)cc4)c3)c(C)c(=O)c2c1` [Example 175, 2-[[(1R)-1-[2-[3-(4-Cyanophenyl)phenyl]-3,6-dimethyl-4-oxo-chromen-8-yl]ethyl]amino]benzoic acid] yielded an IC50 in assay [1] of 50 to 100 nM.
